Reference: patent US11440923B2, “Substituted macrocyclic indole derivatives” (Bayer Aktiengesellschaft, priority 2017, dated 2022)
Structures can show the parent of a compound that is named as a salt. Where two headings read alike, the source gives them in different places.

Key:
[1] = biological target: BCL-XL (Homo sapiens (Human), UniProt Q07817); assay: Protein-protein interaction assay BCL-XL/Bad BH3 peptide (BCL-XL assay, TR-FRET); format: binding; conditions: read-out: BCL-XL Assay IC50 (median)
Sequence of BCL-XL (Q07817 1-212): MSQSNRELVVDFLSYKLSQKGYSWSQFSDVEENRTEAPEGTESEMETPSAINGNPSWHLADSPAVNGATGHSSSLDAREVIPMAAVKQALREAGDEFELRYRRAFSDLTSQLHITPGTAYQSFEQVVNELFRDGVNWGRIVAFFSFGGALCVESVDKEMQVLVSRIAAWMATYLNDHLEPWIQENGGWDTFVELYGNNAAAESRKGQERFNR
Procedure: Assay 2 Protein-Protein Interaction Assay: BCL-XL/Bad BH3 Peptide (BCL-XL Assay)
The dose-dependent inhibition by the compounds described in this invention of the interaction between BCL-XL and the BH3 domain of Bad (both human) was determined using a steady state binding competition assay with time-resolved fluorescence energy transfer (TR-FRET) readout. For that purpose BCL-XL (amino acids 1-212, C-terminal fused to a hexahistidine (6×His) tag (SEQ ID 3) and a synthetic Bad BH3-derived peptide of sequence Biotin-PEG2-PEG2-[…]-Nle-[…]-amide (SEQ ID 4) served as protein receptor and tracer ligand respectively. The recombinant BCL-XL protein (expressed in E. coli) was purchased from BPS Bioscience (San Diego, Calif., USA). The Bad BH3-derived peptide can be obtained from e.g. Biosyntan (Berlin, Germany).
In the assay 11 different concentrations of each compound (0.1 nM, 0.33 nM, 1.1 nM, 3.8 nM, 13 nM, 44 nM, 0.15 μM, 0.51 μM, 1.7 μM, 5.9 μM and 20 μM) were typically measured as duplicates in the same microtiter plate. For that, 100-fold concentrated DMSO solutions were prepared by serial dilutions (1:3.4) of a 2 mM stock solution in a clear, 384-well microtiter plate (Greiner Bio-One, Frickenhausen, Germany). From there, 50 nl were transferred in a dark test plate (Greiner Bio-One, Frickenhausen, Germany). The assay was initiated by addition of 2 μL of a 2,5-fold concentrated His-BCL-XL solution (usually for a 1 nM end concentration in 5 μL reaction volume) in aqueous assay buffer [50 mM Tris/HCl pH 7, 100 mM sodium chloride (NaCl), 50 mM potassium fluoride (KF), 0.005% Tween-20, 2 mM DTT, 0.1% bovine gamma globulin (BGG)] to the compounds in the assay plate. This was followed by a 10-minute incubation step at 22° C. for pre-equilibration of the putative complex between His-BCL-XL and the compounds. After that, 3 μL of a 1.67-fold concentrated solution (in assay buffer) consisting of Bad BH3-derived peptide (1 nM end concentration) and TR-FRET detection reagents [1.67 nM anti-His-Eu cryptate and 1.67 nM streptavidin-XL665 (both from Cisbio Bioassays, Codolet, France)], were added.
The mixture was incubated in the dark for one hour at 22° C. and then overnight at 4° C. The formation of BCL-XL/Bad complexes was determined by measuring the resonance energy transfer of the anti-His- Eu-cryptate antibody to the streptavidin-XL665 present in the reaction. For that purpose, the fluorescence emission at 620 nm and 665 nm after excitation at 330-350 nm was measured in a TR-FRET measuring instrument, for instance a Rubystar or a Pherastar (both from BMG Lab Technologies, Offenburg, Germany) or a Viewlux (Perkin-Elmer). The ratio of the emission at 665 nm and at 622 nm was used as indicator of the amount of BCL-XL/Bad complexes present.
The resulting data (ratio) were normalized, taking 0% inhibition as the mean value of control measurements (usually 32 data points) where all reagents were included. In this case 50 nl DMSO were used instead of compounds. […] IC50 values were determined by regression analysis based on a 4 parameter equation (minimum, maximum, IC50, Hill; Y=Max+(Min−Max)/(1+(X/IC50)^Hill) using the Screener Software (Genedata).

[2] = tested on: SUDHL5 cells; assay: Induction of cytotoxicity in SUDHL5 cells (Assay 6); format: cell-based
Method in brief: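 Run alongside apoptosis measurements, this cytotoxicity readout used cells treated with compound for 5 h at 37 °C and quantified ATP-based luminescence with CellTiter-Glo.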

[3] = tested on: HMC-1-8 cells; assay: Antiproliferation assay HMC-1-8 (Assay 7); format: cell-based
Method in brief: (§1)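 Growth inhibition is determined from ATP luminescence (CellTiter-Glo) following 72 h incubation with compound. Time-zero cells are measured the same way for baseline, and IC50s are referenced to DMSO controls.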

[4] = tested on: AMO-1 cells; assay: Antiproliferation assay AMO-1 (Assay 7); format: cell-based
Method in brief: as §1

[5] = Homo sapiens, SU-DHL-5, 5 h, 5 h, CellTiter-Glo; read-out: Cytotox SUDHL5 IC50 (median)
[6] = 72 h, CellTiter-Glo; read-out: Antiproli HMC-1-8 IC50 median
[7] = 72 h, CellTiter-Glo; read-out: Antiproli AMO-1 IC50 median
[8] = 5 h, CellTiter-Glo; read-out: Cytotox SUDHL5 IC50 (median)
[9] = read-out: Antiproli AMO-1 IC50 median; 72 h, CellTiter-Glo
[10] = read-out: Cytotox SUDHL5 IC50 (median); 5 h, CellTiter-Glo

IC50 [1] | Structure (SMILES) | IC50 [3, 6] | IC50 [4, 7] | IC50 [2, 8] | further results
> 20000 nM | Cc1c2c(nn1C)C(C)OCCCCn1c(C(=O)O)c(CCCOc3cccc4ccccc34)c3cccc-2c31 (racemic) [Example 1, (rac)-2,3,15-trimethyl-7-[3-(naphthalen-1-yloxy)propyl]-2,10,11,12,13,15-hexahydropyrazolo[4′,3′:9,10][1,6]oxazacycloundecino[8,7,6-hi]indole-8-carboxylic Acid (Mixture of Stereoisomers)] |  |  |  | IC50 [2, 5]: 2800 nM
> 20000 nM | Cc1c2c(nn1C)C(CCN1CCOCC1)OCCCCn1c(C(=O)O)c(CCCOc3cccc4ccccc34)c3ccc(F)c-2c31 (racemic) [Example 7, (rac)-4-fluoro-2,3-dimethyl-15-[2-(morpholin-4-yl)ethyl]-7-[3-(naphthalen-1-yloxy)propyl]-2,10,11,12,13,15-hexahydropyrazolo[4′,3′:9,10][1,6]oxazacycloundecino[8,7,6-hi]indole-8-carboxylic Acid] |  |  |  | IC50 [2, 5]: 240 nM
 | CCc1c2c(nn1C)C1CCCCN1CCCCn1c(C(=O)O)c(CCCOc3cccc4ccccc34)c3ccc(Cl)c-2c31 (racemic) [Example 102, (rac)-18-chloro-1-ethyl-2-methyl-15-[3-(1-naphthyloxy)propyl]-2,3b,4,5,6,7,9,10,11,12-decahydropyrazolo[3′,4′:8,9]pyrido[1′,2′:6,7][1,6]diazacycloundecino[10,11,1-hi]indole-14-carboxylic Acid] |  |  |  | IC50 ([3]; 72 h, CellTiter-Glo, read-out: Antiproli HMC-1-8 IC50 median): 7470 nM; IC50 ([4]; Homo sapiens, AMO1, 72 h, 72 h, CellTiter-Glo; read-out: Antiproli AMO-1 IC50 median): 522 nM; IC50 [2, 5]: 800 nM
 | CCc1c2c(nn1C)C(CCN1CC(F)(F)C1)OCCCCn1c(C(=O)O)c(CCCOc3cccc4cc(F)ccc34)c3ccc(Cl)c-2c31 (single isomer, unassigned; (+)) [Example 78, (+)-4-chloro-15-[2-(3,3-difluoroazetidin-1-yl)ethyl]-3-ethyl-7-{3-[(6-fluoronaphthalen-1-yl)oxy]propyl}-2-methyl-2,10,11,12,13,15-hexahydropyrazolo[4′,3′:9,10][1,6]oxazacycloundecino[8,7,6-hi]indole-8-carboxylic Acid—N-ethylethanamine Salt] | 563 nM | 11.2 nM | 14 nM | 
 | CCc1c2c(nn1C)C1CCCN1CCCCn1c(C(=O)O)c(CCCOc3cccc4cc(F)ccc34)c3ccc(Cl)c-2c31 (single isomer, unassigned; (+)) [Example 105, (+)-17-chloro-1-ethyl-14-{3-[(6-fluoronaphthalen-1-yl)oxy]propyl}-2-methyl-3b,4,5,6,8,9,10,11-octahydro-2H-pyrazolo[3′,4′:8,9]pyrrolo[1′,2′:6,7][1,6]diazacycloundecino[10,11,1-hi]indole-13-carboxylic Acid] | 2660 nM | 203 nM | 370 nM | 
 | CCc1c2c(nn1C)C(CCN1CCOCC1)OCCCCn1c(C(=O)O)c(CCCOc3cccc4ccccc34)c3ccc(F)c-2c31 (single isomer, unassigned; enantiomer 1) [Example 11, 3-ethyl-4-fluoro-2-methyl-15-[2-(morpholin-4-yl)ethyl]-7-{3-[(naphthalen-1-yl)oxy]propyl}-2,10,11,12,13,15-hexahydropyrazolo[4′,3′:9,10][1,6]oxazacycloundecino[8,7,6-hi]indole-8-carboxylic Acid—N-ethylethanamine Salt (Enantiomer 1)] |  |  | 95 nM | IC50 ([3]; 72 h, read-out: Antiproli HMC-1-8 IC50 median, 72 h, CellTiter-Glo): 1030 nM; IC50 [4, 9]: 159 nM
 | CCc1c2c(nn1C)C(CCC1CCOCC1)OCCCCn1c(C(=O)O)c(CCCOc3cccc4cc(F)ccc34)c3ccc(Cl)c-2c31 (single isomer, unassigned; enantiomer 1) [Example 61, 4-chloro-3-ethyl-7-{3-[(6-fluoronaphthalen-1-yl)oxy]propyl}-2-methyl-15-[2-(oxan-4-yl)ethyl]-2,10,11,12,13,15-hexahydropyrazolo[4′,3′:9,10][1,6]oxazacycloundecino[8,7,6-hi]indole-8-carboxylic Acid (Enantiomer 1)] | 186 nM | 22.5 nM | 38 nM | 
 | CCc1c2c(nn1C)C(CCC1CCOCC1)OCCCCn1c(C(=O)O)c(CCCOc3cccc4cc(F)ccc34)c3ccc(Cl)c-2c31 (single isomer, unassigned; enantiomer 1) [Example 63, (+)-4-chloro-3-ethyl-7-{3-[(6-fluoronaphthalen-1-yl)oxy]propyl}-2-methyl-15-[2-(oxan-4-yl)ethyl]-2,10,11,12,13,15-hexahydropyrazolo[4′,3′:9,10][1,6]oxazacycloundecino[8,7,6-hi]indole-8-carboxylic Acid—N-ethylethanamine Salt (Enantiomer 1)] |  |  | 49 nM | IC50 ([3]; read-out: Antiproli HMC-1-8 IC50 median; 72 h, CellTiter-Glo): 351 nM; IC50 [4, 9]: 20 nM
 | CCc1c2c(nn1C)C(CCC(C)(C)O)OCCCCn1c(C(=O)O)c(CCCOc3cccc4cc(F)ccc34)c3ccc(Cl)c-2c31 (single isomer, unassigned; enantiomer 1) [Example 75, (+)-4-chloro-3-ethyl-7-{3-[(6-fluoronaphthalen-1-yl)oxy]propyl}-15-(3-hydroxy-3-methylbutyl)-2-methyl-2,10,11,12,13,15-hexahydropyrazolo[4′,3′:9,10][1,6]oxazacycloundecino[8,7,6-hi]indole-8-carboxylic Acid—N-ethylethanamine Salt (Enantiomer 1)] | 159 nM | 13.8 nM | 12 nM | 
> 20000 nM | Cc1c2c(nn1C)C(CCN1CCOCC1)OCCCCn1c(C(=O)O)c(CCCOc3cccc4ccccc34)c3ccc(F)c-2c31 (single isomer, unassigned; enantiomer 2) [Example 9, 4-fluoro-2,3-dimethyl-15-[2-(morpholin-4-yl)ethyl]-7-{3-[(naphthalen-1-yl)oxy]propyl}-2,10,11,12,13,15-hexahydropyrazolo[4′,3′:9,10][1,6]oxazacycloundecino[8,7,6-hi]indole-8-carboxylic Acid—N-ethylethanamine Salt (Enantiomer 2)] |  |  | 5400 nM | 
> 20000 nM | Cc1c2c(nn1C)C(C)OCCCCn1c(C(=O)O)c(CCCOc3cccc4ccccc34)c3cccc-2c31 (single isomer, unassigned; stereoisomer 1) [Example 2, 2,3,15-trimethyl-7-[3-(naphthalen-1-yloxy)propyl]-2,10,11,12,13,15-hexahydropyrazolo[4′,3′:9,10][1,6]oxazacycloundecino[8,7,6-hi]indole-8-carboxylic Acid Trifluoroacetic Acid Salt (Stereoisomer 1)] |  |  |  | IC50 [2, 10]: 1300 nM
> 20000 nM | Cc1c2c(nn1C)C(C)OCCCCn1c(C(=O)O)c(CCCOc3cccc4ccccc34)c3cccc-2c31 (single isomer, unassigned; stereoisomer 2) [Example 3, 2,3,15-trimethyl-7-[3-(naphthalen-1-yloxy)propyl]-2,10,11,12,13,15-hexahydropyrazolo[4′,3′:9,10][1,6]oxazacycloundecino[8,7,6-hi]indole-8-carboxylic Acid Trifluoroacetic Acid Salt (Stereoisomer 2)] |  |  |  | IC50 [2, 10]: > 33000 nM
